How the values were obtained:
[1] = tested on: Tlp11-LBD (residues 32–332 of Tlp11); experiment: Thermal shift assay (TSA) of Tlp11-LBD; type: binding, C. jejuni ATCC 33560
Experimental: TSA measurements were performed using a quantitative Real-Time PCR System (LightCycler® 480; Roche, United States), to monitor the Tm of the LBD proteins. The compounds listed in Supplementary Table S2 were used as ligand candidates for the high-throughput screening. Each 25 μL mixture for the standard assay contained 20 μM protein, 1–2 mM compound in Buffer C, and SYPRO™ Orange dye (Life Technologies, United States), at 5× concentration. Samples were heated from 26°C to 85°C, with a ramp rate of 1.2°C min^−1, to denature the protein. Protein unfolding curves were recorded by detecting the changes in fluorescence. The Tm values were calculated using first-derivative values (dF/dT) from the raw data.
Fluorescence-based TSA, which has been widely used to discover direct-binding molecules of proteins with high efficiency ([Fernández et al., 2018]), was used to identify the ligand specificity of the C. jejuni chemoreceptor Tlp11. The Tlp11-LBD protein (residues 32–332 of Tlp11) from the strain C. jejuni ATCC 33560 was expressed and purified from E. coli. Hydrophobic reactive dyes were added to the purified protein sample, and the protein was heated to record the change in fluorescence intensity as the temperature increased during the denaturation process of the protein (see Materials and Methods). The melting temperature (Tm) of the target protein was obtained and represented as the midpoint of the protein unfolding transition. Most ligands stabilize the protein during binding, leading to an increase in Tm. Using TSA, we screened a compound library composed of 131 molecules (Supplementary Table S2) that commonly act as microbial carbon and nitrogen sources or metabolites in the human GI tract. Among the compounds in the library, methyl pyruvate elicited the most significant increase in Tm. In the absence of the ligand, the Tm of Tlp11-LBD was 38.3°C, while in the presence of 1 mM methyl pyruvate, the Tm increased by 1.1°C compared to buffer (Figure 1A).

Tlp11-LBD V318A = experiment: MST of Tlp11-LBD mutant V318A; type: binding, C. jejuni ATCC 33560; conditions: max ligand 2.5 mM
Experimental: The His-tag dye (MO-L018 RED-tris-NTA, NanoTemper, Germany) was adjusted to a final concentration of 25 nM and used to label the purified protein with a His-tag. The compound was diluted to a series of concentrations in phosphate-buffered saline ([Duan et al., 2023]) with 0.05% Tween 20 (PBS-T) buffer and mixed in a ratio of 1:1 with protein. The mixtures were loaded into capillaries (Monolith™ Series capillaries, NanoTemper) by means of capillary action. Thermophoresis was measured using a Monolith™ NT.115 (NanoTemper) instrument, with 40% excitation and 40% MST power configuration. The time-traces of changes in fluorescence, which reflected the thermophoretic movement of labeled protein affected by different concentrations of compound were recorded, and the dose–response curves were fitted with the ‘temperature jump and thermophoresis’ mode. Data analysis was performed using MO. Affinity Analysis version 2.3 (NanoTemper) and Prism version 8.0.2 (GraphPad Software, United States).
In order to confirm the contribution of L264, N268, I276, Y291, V318, and T320 to the binding to methyl pyruvate, we generated Tlp11-LBD proteins with an alanine point mutation at individual residues, to obtain the mutant proteins L264A, N268A, I276A, Y291A, V318A, and T320A, and then analyzed the binding affinities of methyl pyruvate to these mutants using MST. […]

C. jejuni ATCC 33560 = experiment: Growth curves in Minimal Essential Medium; type: cell-based, Campylobacter jejuni; conditions: Minimal Essential Medium with fetal bovine serum, shaking; methyl pyruvate at concentrations above 1 mM
Experimental: The C. jejuni ATCC 33560, C. jejuni WT NCTC 11168 and 11168ΩTlp11 cells were grown on a MH agar plate overnight, at 37°C, under microaerobic conditions. The colonies were suspended in PBS ([Duan et al., 2023]), pH 7.2, inoculated into Minimal Essential Medium broth (Life Technologies) containing 10% fetal bovine serum to an initial OD600 of 0.01, and grown at 37°C, 100 rpm, under microaerobic conditions. When required, Minimal Essential Medium was supplemented with different concentrations of methyl pyruvate or pyruvate (both from Macklin, China).

[2] = tested on: Tlp11[1-342]-Tar[200-553] (Tlp342Tar200); experiment: Microfluidic chemotaxis of E. coli expressing hybrid chemoreceptor Tlp342Tar200; type: cell-based, E. coli VS188; conditions: microfluidic device, 50 min
Experimental: The E. coli cells expressing hybrid chemoreceptor and GFP were grown in tryptone broth, up to an OD600 of 0.55, at 34°C, with shaking at 250 rpm. The cells were harvested by means of centrifugation at 5,000 rpm, washed twice with Tethering Buffer (10 mM KH2PO4, 10 mM K2HPO4, and 0.1 mM EDTA, pH 7.0), and resuspended in Tethering Buffer such that an OD600 of 5.5 was attained. The chemotactic responses of E. coli cells to the compounds were measured using a microfluidic device ([Si et al., 2012]). The collected E. coli cells were added to the sink pores of the device and allowed to freely diffuse into the observation channel for 40 min. Subsequently, the compound solution was added to the source pores, to establish a concentration gradient gradually in the observation channel of the device. Fluorescence intensity in the observation channel was detected using an LSM 800 laser scanning confocal microscope (Zeiss, Germany). Data were analyzed using ImageJ software.
To determine whether methyl pyruvate stimulates transmembrane signaling through Tlp11-LBD, we fused C. jejuni ATCC 33560 Tlp11-LBD with the cytoplasmic region of the E. coli chemoreceptor Tar to construct Tlp11-Tar hybrid chemoreceptors (Figure 3A). Five hybrid receptors with different fusion positions in the second transmembrane helix (TM2) were obtained: Tlp11[1-342]-Tar[200-553] (Tlp342Tar200), Tlp11[1-343]-Tar[200-553] (Tlp343Tar200), Tlp11[1-346]-Tar[204-553] (Tlp346Tar204), Tlp11[1-347]-Tar[204-553] (Tlp347Tar204), and Tlp11[1-348]-Tar[204-553] (Tlp348Tar204) (Supplementary Figure S5A). To verify the activities of these hybrid chemoreceptors, we expressed each protein as a chimera in green fluorescent protein (GFP)-labeled E. coli VS188 without any other chemoreceptors, such that each hybrid receptor served as the only chemoreceptor in the E. coli. […] These chemotactic responses triggered by glucose through the phosphotransferase system are independent of the chemoreceptor LBD ([Neumann et al., 2012]). […] Thus, we used this hybrid receptor for subsequent chemotaxis measurements.

COC(=O)C(C)=O [methyl pyruvate, Methyl pyruvate]
Tm increase of Tlp11-LBD compared to buffer (ΔTm) ([1]; 1 mM compound, 20 μM protein): 1.1 °C
ΔTm of Tlp11-LBD ([1]; 3 mM compound): 1.3 °C
ΔTm of Tlp11-LBD ([1]; 10 mM compound): 2.8 °C
Kd (binding curve fit) (Tlp11-LBD V318A): unable to obtain fitted Kd values
effect on growth of C. jejuni ATCC 33560 (C. jejuni ATCC 33560): significantly promoted the growth
chemotactic response of E. coli expressing Tlp342Tar200 as the sole receptor [2]: strong attractant response
